Patent US8569306B2, “JNK modulators” (Hoffmann-La Roche, Inc., priority 2009, dated 2013)

Experiments:
Human JNK2α2 = Human JNK2α2 (Homo sapiens (Human), UniProt P45984); assay: JNK assay in vitro, phosphorylation of GST-ATF2 (19-96) with [γ-33P] ATP; format: biochemical; conditions: Human JNK2α2, 1 nM enzyme, 1 μM ATF2, 8 μM ATP; read-out: JNK2 − IC50
Procedure: (§1) JNK activity was measured by phosphorylation of GST-ATF2 (19-96) with [γ-^33P] ATP. […] Human JNK2α2 assay contains 1 nM enzyme, 1 μM ATF2, 8 μM ATP with 1 μCi [γ-^33P] ATP. Human JNK1α1 assay contains 2 nM enzyme, 1 μM ATF2, 6 μM ATP with 1 μCi [γ-^33P] ATP. Human JNK3 (Upstate Biotech #14-501M) assay contains 2 nM enzyme, 1 μM ATF2, 4 μM ATP with 1 μCi [γ-^33P] ATP. The enzyme assay was carried out in the presence or absence of several compound concentrations. JNK and compound were pre-incubated for 10 min, followed by initiation of the enzymatic reaction by adding ATP and the substrate. The reaction mixture was incubated at 30° C. for 30 min. At the end of incubation, the reaction was terminated by transferring 25 μl of the reaction mixture to 150 μl of 10% glutathione Sepharose® slurry (Amersham #27-4574-01) containing 135 mM EDTA. The reaction product was captured on the affinity resin, and washed on a filtration plate (Millipore, MABVNOB50) with phosphate buffered saline for six times to remove free radionucleotide. The incorporation of ^33P into ATF2 was quantified on a microplate scintillation counter (Packard Topcount). Compound inhibition potency on JNK was measured by IC50 value generated from ten concentration inhibition curves fitted into the 3-parameter model: % inhibition=Maximum/(1+(IC50/[Inhibitor])^slope). Data were analyzed on Microsoft Excel for parameter estimation.

Human JNK1α1 = Human JNK1α1 (Homo sapiens (Human), UniProt P45983); assay: as above; format: biochemical; conditions: Human JNK1α1, 2 nM enzyme, 1 μM ATF2, 6 μM ATP; read-out: JNK1 − IC50
Procedure: as §1

Human JNK1α1, sequence (P45983 other isoform, or with tags, fused parts or gaps): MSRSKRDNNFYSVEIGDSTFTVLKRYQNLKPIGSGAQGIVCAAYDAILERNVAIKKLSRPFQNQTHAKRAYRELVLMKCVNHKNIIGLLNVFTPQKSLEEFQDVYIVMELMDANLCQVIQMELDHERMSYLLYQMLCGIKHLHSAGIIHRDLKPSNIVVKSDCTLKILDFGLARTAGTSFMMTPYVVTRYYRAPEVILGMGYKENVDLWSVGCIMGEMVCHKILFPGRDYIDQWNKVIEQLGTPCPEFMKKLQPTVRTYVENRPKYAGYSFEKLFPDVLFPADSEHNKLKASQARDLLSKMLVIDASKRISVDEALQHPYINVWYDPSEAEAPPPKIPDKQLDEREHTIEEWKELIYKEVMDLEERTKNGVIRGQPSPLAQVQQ
Human JNK2α2, sequence (P45984 whole entry): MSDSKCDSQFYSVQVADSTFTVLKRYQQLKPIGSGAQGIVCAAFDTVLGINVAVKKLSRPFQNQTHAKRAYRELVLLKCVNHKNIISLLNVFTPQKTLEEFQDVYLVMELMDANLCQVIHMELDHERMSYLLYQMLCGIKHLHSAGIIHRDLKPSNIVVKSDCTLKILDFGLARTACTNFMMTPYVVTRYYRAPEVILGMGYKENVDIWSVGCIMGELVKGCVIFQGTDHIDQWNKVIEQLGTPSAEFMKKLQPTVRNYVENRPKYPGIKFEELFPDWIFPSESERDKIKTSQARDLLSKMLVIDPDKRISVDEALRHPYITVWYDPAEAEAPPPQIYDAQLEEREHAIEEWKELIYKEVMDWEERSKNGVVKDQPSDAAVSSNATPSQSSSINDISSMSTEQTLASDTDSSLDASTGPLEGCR

Compound	melting point [°C]	IC50 (Human JNK2α2) [nM]	IC50 (Human JNK1α1) [nM]
CC(C)(O)c1cccn2c(-c3ccnc(N[C@H]4CC[C@H](NS(C)(=O)=O)CC4)n3)cnc12 [Compound 3, N-(4-{4-[8-(1-Hydroxy-1-methyl-ethyl)-imidazo[1,2-a]pyridine-3-yl]-pyrimidin-2-ylamino}-cyclohexyl)-methanesulfonamide]	249 to 250		
CC(C)(O)c1cccn2c(-c3ccnc(N[C@H]4CC[C@H](CS(C)(=O)=O)CC4)n3)cnc12 [Compound 1, 2-{3-[2-(4-methanesulfonylmethyl-cyclohexylamino)-pyrimidin-4-yl]-imidazo[1,2-a]pyridin-8-yl}-propan-2-ol]	223 to 224	295	
CN(C)S(=O)(=O)N[C@H]1CC[C@H](Nc2nccc(-c3cnc4c(C(C)(C)O)cccn34)n2)CC1 [Compound 4, N-(4-{4-[8-(1-Hydroxy-1-methyl-ethyl)-imidazo[1,2-a]pyridine-3-yl]-pyrimidin-2-ylamino}-cyclohexyl)-(N,N-dimethylamino)sulfonamide]	> 300	124	
CS(=O)(=O)CCCOc1cccn2c(-c3ccnc(N[C@H]4CC[C@H](C(=O)N5CCC(O)CC5)CC4)n3)cnc12 [Compound 5, (4-Hydroxy-piperidin-1-yl)-(4-{4-[8-(3-methanesulfonyl-propoxy)-imidazo[1,2-a]pyridin-3-yl]-pyrimidin-2-ylamino}-cyclohexyl)-methanone]	258 to 259	50.3	21.6
CCOC(=O)[C@H]1CC[C@H](Nc2nccc(-c3cnc4c(OCc5ccccc5)cccn34)n2)CC1 [Compound 8, 4-[4-(8-benzyloxy-imidazo[1,2-a]pyridine-3-yl)-pyrimidin-2-ylamino]-cyclohexanecarboxylic acid ethyl ester]	147 to 149	104	48.9
O=C([C@H]1CC[C@H](Nc2nccc(-c3cnc4c(OCc5ccccc5)cccn34)n2)CC1)N1CCC(O)CC1 [Compound 6, {4-[4-(8-Benzyloxy-imidazo[1,2-a]pyridin-3-yl)-pyrimidin-2-ylamino]-cyclohexyl}-(4-hydroxy-piperidin-1-yl)-methanone]	210 to 212	55.9	33.3
CS(=O)(=O)N[C@H]1CC[C@H](Nc2nccc(-c3cnc4ccccn34)n2)CC1 [Compound 10, N-[4-(4-Imidazo[1,2-a]pyridin-3-yl-pyrimidin-2-ylamino)-cyclohexyl]-methanesulfonamide]	259 to 261	214	56.7
O[C@H]1CC[C@H](Nc2nccc(-c3cnc4ccccn34)n2)CC1 [Compound 11, 4-(4-Imidazo[1,2-a]pyridin-3-yl-pyrimidin-2-ylamino)-cyclohexanol]		254	86.6
CS(=O)(=O)N[C@H]1CC[C@H](Nc2nccc(-c3cnc4c(OCc5ccccc5)cccn34)n2)CC1 [Compound 7, N-{4-[4-(8-benzyloxy-imidazo[1,2-a]pyridin-3-yl)-pyrimidin-2-ylamino]-cyclohexyl}-methanesulfonamide]	236.9 to 241	52.7	23.7
CC(C)(O)c1cccn2c(-c3ccnc(N[C@H]4CC[C@H](C(=O)N5CCC(O)CC5)CC4)n3)cnc12 [Compound 2, (4-{4-[8-(1-hydroxy-1-methyl-ethyl)-imidazo[1,2-a]pyridin-3-yl]-pyrimidin-2-ylamino}-cyclohexyl)-(4-hydroxy-piperidin-1-yl)-methanone]	188 to 190	369	
O[C@H]1CC[C@H](Nc2nccc(-c3cnc4c(OCc5ccccc5)cccn34)n2)CC1 [Compound 9, 4-[4-(8-Benzyloxy-imidazo[1,2-a]pyridin-3-yl)-pyrimidin-2-yl-amino]-cyclohexanol]	236 to 238	49.4	26.9
